Results taken from paper PMC4327817 (ACS chemical biology, 2014).
Like-named read-outs stand apart in the source and are kept apart here.

How the values were obtained:
[1] = test system: BxPC3 cells; experiment: Histone acetylation in BxPC3 cells after drug treatment; assay type: cell-based, human; details: for Mean fold-change in acetylation: TSA 0.5 μM; for EC50: read-out: apparent EC50 for activation
[2] = target: CBP (Homo sapiens, UniProt Q92793); experiment: C646 titration of CBP acetylation of H3/H4 under kcat conditions; assay type: biochemical
Sequence of CBP (Q92793 whole entry): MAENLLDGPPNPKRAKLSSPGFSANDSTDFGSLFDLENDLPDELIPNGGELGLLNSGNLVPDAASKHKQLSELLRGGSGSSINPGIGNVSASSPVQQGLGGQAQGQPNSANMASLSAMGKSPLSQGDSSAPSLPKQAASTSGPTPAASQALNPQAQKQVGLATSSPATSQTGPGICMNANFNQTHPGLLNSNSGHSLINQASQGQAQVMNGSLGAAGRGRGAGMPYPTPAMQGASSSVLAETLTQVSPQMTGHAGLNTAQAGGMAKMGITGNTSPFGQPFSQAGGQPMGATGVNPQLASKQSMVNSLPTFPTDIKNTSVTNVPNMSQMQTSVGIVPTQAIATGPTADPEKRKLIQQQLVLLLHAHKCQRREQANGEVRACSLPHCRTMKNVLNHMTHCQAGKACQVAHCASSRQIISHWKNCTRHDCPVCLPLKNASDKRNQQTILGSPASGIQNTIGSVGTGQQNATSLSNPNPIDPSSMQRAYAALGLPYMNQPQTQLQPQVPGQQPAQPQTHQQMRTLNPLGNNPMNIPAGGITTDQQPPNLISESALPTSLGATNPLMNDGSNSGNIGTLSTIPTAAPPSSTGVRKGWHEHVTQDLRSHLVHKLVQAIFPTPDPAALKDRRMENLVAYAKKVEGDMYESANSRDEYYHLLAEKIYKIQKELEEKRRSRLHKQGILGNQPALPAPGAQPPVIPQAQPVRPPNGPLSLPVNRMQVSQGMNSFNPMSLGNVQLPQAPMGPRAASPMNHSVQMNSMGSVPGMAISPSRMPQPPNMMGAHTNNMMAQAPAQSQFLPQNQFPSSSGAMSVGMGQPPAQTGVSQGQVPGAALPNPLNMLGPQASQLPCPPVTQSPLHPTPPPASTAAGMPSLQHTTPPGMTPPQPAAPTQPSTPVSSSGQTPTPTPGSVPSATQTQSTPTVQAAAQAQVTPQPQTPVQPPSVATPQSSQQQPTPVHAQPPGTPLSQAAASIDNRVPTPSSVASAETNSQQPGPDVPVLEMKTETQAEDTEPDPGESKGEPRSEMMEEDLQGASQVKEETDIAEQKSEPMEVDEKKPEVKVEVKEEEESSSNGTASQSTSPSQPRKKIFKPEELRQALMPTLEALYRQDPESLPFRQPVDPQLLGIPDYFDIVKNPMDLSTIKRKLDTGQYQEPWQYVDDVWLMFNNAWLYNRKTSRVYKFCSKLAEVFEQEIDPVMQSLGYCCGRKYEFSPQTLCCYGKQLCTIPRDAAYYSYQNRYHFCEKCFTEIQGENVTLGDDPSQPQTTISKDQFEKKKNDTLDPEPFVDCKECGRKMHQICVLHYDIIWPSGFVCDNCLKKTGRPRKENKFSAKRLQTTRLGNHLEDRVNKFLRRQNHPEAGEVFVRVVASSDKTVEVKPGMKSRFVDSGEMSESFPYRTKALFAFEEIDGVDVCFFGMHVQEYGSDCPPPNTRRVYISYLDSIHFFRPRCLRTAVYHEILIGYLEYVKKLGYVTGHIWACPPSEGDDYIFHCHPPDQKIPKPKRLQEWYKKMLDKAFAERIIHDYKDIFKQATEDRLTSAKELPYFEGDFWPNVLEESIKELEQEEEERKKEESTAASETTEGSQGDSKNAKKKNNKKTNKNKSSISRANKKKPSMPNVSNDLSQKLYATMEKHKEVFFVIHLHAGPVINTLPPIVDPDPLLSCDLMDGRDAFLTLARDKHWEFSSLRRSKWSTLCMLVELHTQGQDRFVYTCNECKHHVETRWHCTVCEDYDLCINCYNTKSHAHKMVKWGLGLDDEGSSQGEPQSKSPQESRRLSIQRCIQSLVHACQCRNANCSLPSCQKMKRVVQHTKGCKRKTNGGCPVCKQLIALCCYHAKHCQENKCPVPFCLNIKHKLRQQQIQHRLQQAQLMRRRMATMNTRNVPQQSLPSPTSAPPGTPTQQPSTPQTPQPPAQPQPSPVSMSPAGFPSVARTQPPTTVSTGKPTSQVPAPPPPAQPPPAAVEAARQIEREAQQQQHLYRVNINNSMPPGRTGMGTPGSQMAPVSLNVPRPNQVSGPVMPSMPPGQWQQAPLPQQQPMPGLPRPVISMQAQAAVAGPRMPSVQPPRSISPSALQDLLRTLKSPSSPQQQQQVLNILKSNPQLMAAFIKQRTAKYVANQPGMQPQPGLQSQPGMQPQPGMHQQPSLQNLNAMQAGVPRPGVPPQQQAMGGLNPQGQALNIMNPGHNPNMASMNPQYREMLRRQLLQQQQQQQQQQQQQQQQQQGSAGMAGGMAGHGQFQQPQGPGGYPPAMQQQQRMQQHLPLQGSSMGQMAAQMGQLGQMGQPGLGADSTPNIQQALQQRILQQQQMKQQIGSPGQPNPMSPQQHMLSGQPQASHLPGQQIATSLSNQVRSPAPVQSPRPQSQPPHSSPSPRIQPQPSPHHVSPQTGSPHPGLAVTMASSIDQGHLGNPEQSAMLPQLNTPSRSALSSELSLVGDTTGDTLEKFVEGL

Q: `CC(/C=C/C(=O)NO)=C\[C@@H](C)C(=O)c1ccc(N(C)C)cc1` [TSA] was tested. Which “Mean fold-change in acetylation” value ([1]; site H3K9, 4 hours, after 16 hours of serum starvation) did it give?
A: 3.02 fold

Q: What about the “Mean fold-change in acetylation” value ([1]; site H3K9, 4 hours, no starvation) of the same molecule?
A: 68.56 fold

Q: What about the “increase of acetylation relative to C646” value ([1]; site H3K9, TSA versus C646) of the same molecule?
A: 42 fold

Q: And the “Mean fold-change in acetylation” value ([1]; site H3K14, 4 hours, after 16 hours of serum starvation)?
A: 1.65 fold

Q: And the “Mean fold-change in acetylation” value ([1]; site H3K14, 4 hours, no starvation)?
A: 2.412 fold

Q: What about the “Mean fold-change in acetylation” value ([1]; site H3K18, 4 hours, after 16 hours of serum starvation) of the same molecule?
A: 1.94 fold

Q: What about the “Mean fold-change in acetylation” value ([1]; site H3K23, 4 hours, after 16 hours of serum starvation) of the same molecule?
A: 1.78 fold

Q: What about the “Mean fold-change in acetylation” value ([1]; site H3K23, 4 hours, no starvation) of the same molecule?
A: 2.83 fold

Q: Which “effect of MEDICA 16 pretreatment on the acetylation response to C646” value ([1]; 5 μM MEDICA 16 for 24 hours prior to […] C646) does the source give for `CC(C)(CCCCCCCCCCC(C)(C)CC(=O)O)CC(=O)O` [MEDICA 16, beta, beta’-tetramethylhexadecanedioic acid] here?
A: muted stimulatory response to C646

Q: With `CC1=NN(c2ccc(C(=O)O)cc2)C(=O)/C1=C\c1ccc(-c2cc(C)c(C)cc2[N+](=O)[O-])o1` [C646] as the molecule, how does the “C646 concentration range inhibiting CBP” value ([2]; compared with p300) read?
A: within the nanomolar range

Q: And the “effect of C646 on CBP acetylation activity” value ([2]; kcat conditions, other sites mainly displayed an inhibitory effect)?
A: biphasic dependence for H3K18

Q: What about the “stimulation of acetylation in parental BxPC3 cells” value ([1]; parental cells, compared with p300-depleted cells) of the same molecule?
A: ≤ 2.5 fold

Q: And the EC50 ([1]; site H3K18, 4 hours)?
A: ~400 nM

Q: And the EC50 ([1]; site H3K23, 4 hours)?
A: ~400 nM

Q: And the IC50 ([1]; read-out: apparent IC50 of inhibition, site H3K18, 4 hours)?
A: ~6800 nM
